Reference: the supplement of paper PMC10307832

Tests used:
Experiment in all cases: relative viability (nuclei count vs DMSO), 5 days (fraction); higher = more cells survive
[1] = tested on: 201T
In short: (§1)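 Relative viability is defined as nuclei in treated wells over nuclei in vehicle wells. Duplicate plates were run and medians reported. Lung cancer cell lines in 1536-well plates were dosed by pin tool one day after seeding, with one drug or with a fixed anchor-drug dose plus five library-drug doses (not always all listed) in √10 steps, and nuclei were counted after 5 days.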

[2] = tested on: NCI-H1650
In short: as §1

[3] = tested on: BEN
In short: as §1

[4] = tested on: NCI-H2009
In short: as §1

[5] = tested on: NCI-H1437
In short: as §1

[6] = tested on: ABC-1
In short: as §1

[7] = tested on: HCC-366
In short: as §1

[8] = tested on: CAL-12T
In short: as §1

[9] = tested on: NCI-H3122
In short: as §1

[10] = tested on: NCI-H661
In short: as §1

[11] = tested on: PC-14
In short: as §1

[12] = tested on: HARA
In short: as §1

[13] = tested on: NCI-H727
In short: as §1

[14] = tested on: EKVX
In short: as §1

[15] = tested on: NCI-H441
In short: as §1

[16] = tested on: COR-L23
In short: as §1

[17] = tested on: LU99A
In short: as §1

[18] = tested on: NCI-H2170
In short: as §1

[19] = tested on: NCI-H838
In short: as §1

[20] = tested on: NCI-H1666
In short: as §1

[21] = tested on: COR-L 105
In short: as §1

[22] = tested on: LK-2
In short: as §1

Q: How did the relative viability ([1]; first compound 0.04 µM) turn out when `O=C(O)c1ccc(-c2c[nH]c3ncc(-c4ccccc4)cc23)cc1C1CCCC1` + C[C@@H](Oc1cc(-c2cnn(C3CCNCC3)c2)cnc1N)c1c(Cl)ccc(F)c1Cl [Crizotinib] (partner 1 µM) was run?
A: 1.06

Q: What about the relative viability ([1]; first compound 0.1265 µM) of the same molecule?
A: 1.04

Q: What about the relative viability ([1]; first compound 0.4 µM) of the same molecule?
A: 0.941

Q: And the relative viability ([1]; first compound 1.265 µM)?
A: 0.979

Q: And the relative viability ([2]; first compound 0.04 µM)?
A: 1.02

Q: And the relative viability ([2]; first compound 0.1265 µM)?
A: 0.996

Q: What about the relative viability ([2]; first compound 0.4 µM) of the same molecule?
A: 0.917

Q: What about the relative viability ([2]; first compound 1.265 µM) of the same molecule?
A: 0.743

Q: What about the relative viability ([3]; first compound 0.04 µM) of the same molecule?
A: 0.89

Q: What about the relative viability ([3]; first compound 0.1265 µM) of the same molecule?
A: 0.996

Q: And the relative viability ([3]; first compound 0.4 µM)?
A: 0.885

Q: And the relative viability ([3]; first compound 1.265 µM)?
A: 0.774

Q: And the relative viability ([4]; first compound 0.04 µM)?
A: 0.994

Q: And the relative viability ([4]; first compound 0.1265 µM)?
A: 1.05

Q: And the relative viability ([4]; first compound 0.4 µM)?
A: 0.931

Q: What about the relative viability ([4]; first compound 1.265 µM) of the same molecule?
A: 0.666

Q: What about the relative viability ([5]; first compound 0.04 µM) of the same molecule?
A: 1.03

Q: And the relative viability ([5]; first compound 0.1265 µM)?
A: 0.959

Q: And the relative viability ([5]; first compound 0.4 µM)?
A: 0.874

Q: What about the relative viability ([5]; first compound 1.265 µM) of the same molecule?
A: 0.839

Q: What about the relative viability ([6]; first compound 0.04 µM) of the same molecule?
A: 1.4

Q: And the relative viability ([6]; first compound 0.1265 µM)?
A: 1.06

Q: And the relative viability ([6]; first compound 0.4 µM)?
A: 1.18

Q: And the relative viability ([6]; first compound 1.265 µM)?
A: 0.98

Q: What about the relative viability ([7]; first compound 0.04 µM) of the same molecule?
A: 0.502

Q: What about the relative viability ([7]; first compound 0.1265 µM) of the same molecule?
A: 0.686

Q: What about the relative viability ([7]; first compound 0.4 µM) of the same molecule?
A: 0.619

Q: What about the relative viability ([7]; first compound 1.265 µM) of the same molecule?
A: 0.696

Q: What about the relative viability ([8]; first compound 0.04 µM) of the same molecule?
A: 0.633

Q: What about the relative viability ([8]; first compound 0.1265 µM) of the same molecule?
A: 0.755

Q: What about the relative viability ([8]; first compound 0.4 µM) of the same molecule?
A: 0.701

Q: And the relative viability ([8]; first compound 1.265 µM)?
A: 0.528

Q: And the relative viability ([9]; first compound 0.04 µM)?
A: 0.261

Q: What about the relative viability ([9]; first compound 0.1265 µM) of the same molecule?
A: 0.245

Q: What about the relative viability ([9]; first compound 0.4 µM) of the same molecule?
A: 0.272

Q: And the relative viability ([9]; first compound 1.265 µM)?
A: 0.319

Q: And the relative viability ([10]; first compound 0.1265 µM)?
A: 0.963

Q: And the relative viability ([10]; first compound 0.4 µM)?
A: 0.967

Q: And the relative viability ([10]; first compound 1.265 µM)?
A: 1.03

Q: And the relative viability ([11]; first compound 0.04 µM)?
A: 0.931

Q: What about the relative viability ([11]; first compound 0.1265 µM) of the same molecule?
A: 0.849

Q: What about the relative viability ([11]; first compound 0.4 µM) of the same molecule?
A: 0.921

Q: What about the relative viability ([11]; first compound 1.265 µM) of the same molecule?
A: 0.672

Q: And the relative viability ([12]; first compound 0.04 µM)?
A: 0.985

Q: And the relative viability ([12]; first compound 0.1265 µM)?
A: 1.04

Q: And the relative viability ([12]; first compound 0.4 µM)?
A: 1.02

Q: And the relative viability ([12]; first compound 1.265 µM)?
A: 0.763

Q: What about the relative viability ([13]; first compound 0.04 µM) of the same molecule?
A: 0.971

Q: And the relative viability ([13]; first compound 0.1265 µM)?
A: 0.894

Q: And the relative viability ([13]; first compound 0.4 µM)?
A: 0.738

Q: And the relative viability ([13]; first compound 1.265 µM)?
A: 0.805

Q: What about the relative viability ([14]; first compound 0.04 µM) of the same molecule?
A: 1.13

Q: What about the relative viability ([14]; first compound 0.1265 µM) of the same molecule?
A: 0.891

Q: And the relative viability ([14]; first compound 0.4 µM)?
A: 0.927

Q: And the relative viability ([14]; first compound 1.265 µM)?
A: 0.676

Q: And the relative viability ([15]; first compound 0.04 µM)?
A: 0.601

Q: What about the relative viability ([15]; first compound 0.1265 µM) of the same molecule?
A: 0.907

Q: What about the relative viability ([15]; first compound 0.4 µM) of the same molecule?
A: 0.689

Q: And the relative viability ([15]; first compound 1.265 µM)?
A: 0.525

Q: And the relative viability ([16]; first compound 0.04 µM)?
A: 0.584

Q: And the relative viability ([16]; first compound 0.1265 µM)?
A: 0.508

Q: What about the relative viability ([16]; first compound 0.4 µM) of the same molecule?
A: 0.681

Q: What about the relative viability ([16]; first compound 1.265 µM) of the same molecule?
A: 0.476

Q: What about the relative viability ([17]; first compound 0.04 µM) of the same molecule?
A: 0.539

Q: What about the relative viability ([17]; first compound 0.1265 µM) of the same molecule?
A: 0.678

Q: And the relative viability ([17]; first compound 0.4 µM)?
A: 0.503

Q: And the relative viability ([17]; first compound 1.265 µM)?
A: 0.486

Q: And the relative viability ([18]; first compound 0.04 µM)?
A: 1.12

Q: What about the relative viability ([18]; first compound 0.1265 µM) of the same molecule?
A: 1.24

Q: What about the relative viability ([18]; first compound 0.4 µM) of the same molecule?
A: 1.18

Q: And the relative viability ([18]; first compound 1.265 µM)?
A: 0.843

Q: And the relative viability ([19]; first compound 0.04 µM)?
A: 0.794

Q: And the relative viability ([19]; first compound 0.1265 µM)?
A: 0.952

Q: What about the relative viability ([19]; first compound 0.4 µM) of the same molecule?
A: 0.848

Q: What about the relative viability ([19]; first compound 1.265 µM) of the same molecule?
A: 0.88

Q: And the relative viability ([20]; first compound 0.04 µM)?
A: 1.03

Q: And the relative viability ([20]; first compound 0.1265 µM)?
A: 0.991

Q: What about the relative viability ([20]; first compound 0.4 µM) of the same molecule?
A: 0.812

Q: What about the relative viability ([20]; first compound 1.265 µM) of the same molecule?
A: 0.365

Q: And the relative viability ([21]; first compound 0.04 µM)?
A: 0.857

Q: What about the relative viability ([21]; first compound 0.1265 µM) of the same molecule?
A: 0.789

Q: And the relative viability ([21]; first compound 0.4 µM)?
A: 0.723

Q: And the relative viability ([21]; first compound 1.265 µM)?
A: 0.792

Q: What about the relative viability ([22]; first compound 0.04 µM) of the same molecule?
A: 0.31

Q: And the relative viability ([22]; first compound 0.1265 µM)?
A: 0.202

Q: And the relative viability ([22]; first compound 0.4 µM)?
A: 0.291

Q: What about the relative viability ([22]; first compound 1.265 µM) of the same molecule?
A: 0.198
